# From article PMC5007270, “[^68Ga]NODAGA-RGD – Metabolic stability, biodistribution, and dosimetry data from patients with hepatocellular carcinoma and liver cirrhosis” (European Journal of Nuclear Medicine and Molecular Imaging, 2016)
# Entries after “also recorded” stand apart in the source; their conditions may differ. Read-outs that look alike come from different tables or passages of the source.
# Tests used:
# [1] = in vivo; cited from earlier work
# Excerpt: The radiation dose estimates from this study indicate low radiation burden for patients during a [^68Ga]NODAGA-RGD PET scan. The total effective dose was in the range of other radiolabeled RGD-peptides used in clinical studies (e.g., [^18F]Galacto-RGD, Fluciclatide, and RGD-K5; for overview see [6]) as well as other commonly used oncologic PET tracers such as [^18F]FDG (between 20 and 30 μSv/MBq). Even if 200 MBq [^68Ga]NODAGA-RGD (average in this study was 167 ± 10 MBq) would have been injected, the effective dose would have only been 4.3 mSv. This is well within the limits of risk c ...
# [2] = Metabolite analysis of urine samples by RP-HPLC; format: in vivo; conditions: human urine 60 min p.i., n = 6; RP-HPLC C18, radiometric detector
# Protocol: (§1) Blood samples were collected 30 and 60 min and urine 60 min after tracer injection. Blood samples (approx. 15 ml) were centrifuged at 2,500 rpm for 5 min. The supernatant was treated with acetonitrile (1:1) and centrifuged at 3,000 rpm for 3 min. To remove the organic solvent, 1 ml of the supernatant was treated with an argon stream and approx. 300 μl of the remaining solution was analyzed. For urine analysis, an aliquot of 1 ml was passed through a sterile filter (Millex GV, Merck KGaA, Darmstadt, Germany), washed with 1 ml water (which was separately collected) and 50 μl of the filtrate was analyzed.
# (§2) Analysis of metabolites was carried out using reversed-phase high-performance liquid chromatography (RP-HPLC) systems. For blood sample analysis, a Dionex P680 Pump (Germering, Germany) with a sample loop of 1 ml and a SRD Nucleosil 120-3C18 column (150 × 3 mm; Vienna, Austria) were used and fractions of 30 s were collected manually and counted in a 2480 Wizard^2 3″ automatic gamma counter (PerkinElmer, Vienna, Austria). For urine analysis, a Dionex Ultimate 3000 RS with an ACE 3C18 column (150 × 3 mm; Aberdeen, Great Britain) and a raytest Gabi radiometric detector (raytest Isotopenmessgeraete GmbH, Straubenhardt, Germany) were used. […]
# [3] = Organ/tissue residence times; format: in vivo, human; conditions: all patients
# Excerpt: (§3) To obtain the time activity curves and to calculate the residence times, VOIs were placed in the corresponding organs (liver, urine bladder, spleen, kidneys, small intestine, muscle, lung, and left ventricle). The diameter of the VOIs was set to 2.5 cm for all organs with the exception of the liver, where it was set to 5 cm and placed in the center of the corresponding organ to avoid underestimated organ radioactivity because of partial-volume effects. Due to patient movement, the PET/CTs were fused between second and third scan to guarantee the identical position of VOIs at different scans.
# Because of the limited number of measured time points, a monoexponential fit based on the decay corrected data was used for calculation of organ residence times.
# (§4) Urinary bladder radioactivity was determined from three VOIs at least 2.5 cm in diameter drawn inside the bladder. Subsequently, the urinary bladder volume was measured by drawing freehand ROIs around bladder contour at each of the three emission scans. The volume was calculated by HERMES software. The results were used to calculate the urine bladder content residence time.
# [4] = Radiation dosimetry (OLINDA/EXM); format: in vivo, human
# Protocol: For dosimetry calculations, the OLINDA/EXM software (Version 1.1, copyright Vanderbilt University, 2007) was used. Radioactivity in the source organs was determined by multiplying the measured radioactivity concentration (Bq/ml) by the organ masses from the OLINDA adult men phantom; the data were body weight- and lean body mass index-corrected; furthermore, kidney mass was patient-corrected by CT scan.
# as §4
# [5] = tested on: HCC lesions; test: Tracer accumulation in HCC lesions (PET/CT); format: in vivo, human; conditions: nine patients, HCC lesions identified by CT/MRI
# Excerpt: The study included nine patients, and was approved by the ethics committee of the Medical University of Innsbruck and the Austrian Competent Authority (BASG, EudraCT No. 2013-003741-42). Informed written consent was obtained from all patients. Inclusion criteria were untreated HCC lesions in patients with liver cirrhosis Child–Pugh class A or B. Diagnosis and exact number and size of HCC lesions was confirmed by a multiphasic CT or MRI according to EASL/EORTC guidelines. Exclusion criteria were decompensated liver cirrhosis Child–Pugh class C, uncontrolled complications of portal hypertension (refractory ascites, advanced hepatic encephalopathy or large esophageal varices), and advanced renal insufficiency with an eGFR below 30 ml/min. […]
# To obtain the time activity curves and to calculate the residence times, VOIs were placed in the corresponding organs (liver, urine bladder, spleen, kidneys, small intestine, muscle, lung, and left ventricle). The diameter of the VOIs was set to 2.5 cm for all organs with the exception of the liver, where it was set to 5 cm and placed in the center of the corresponding organ to avoid underestimated organ radioactivity because of partial-volume effects. […]
# [6] = Safety and tolerability, phase I clinical study; format: in vivo, human
# Excerpt: The study included nine patients, and was approved by the ethics committee of the Medical University of Innsbruck and the Austrian Competent Authority (BASG, EudraCT No. 2013-003741-42). Informed written consent was obtained from all patients. Inclusion criteria were untreated HCC lesions in patients with liver cirrhosis Child–Pugh class A or B. Diagnosis and exact number and size of HCC lesions was confirmed by a multiphasic CT or MRI according to EASL/EORTC guidelines. Exclusion criteria were decompensated liver cirrhosis Child–Pugh class C, uncontrolled complications of portal hypertension (refractory ascites, advanced hepatic encephalopathy or large esophageal varices), and advanced renal insufficiency with an eGFR below 30 ml/min. Baseline examinations included CT or MRI scan, physical examination, ECG, and laboratory tests (including creatinine, blood count, transaminases, bilirubin, and coagulation parameters) not older than 14 days prior to the PET scan. Physical examination and laboratory tests were repeated on the day after the PET scan and during further follow-up visits to assess possible adverse reactions.
# [7] = PET/CT biodistribution (%ID/l, SUV); format: in vivo, human; conditions: for SUV at 1 h / tissue uptake dose at 1 h / SUV: human, total radioactivity; for SUV at 1 h / SUV: intravenous; for SUV at 1 h / tissue uptake dose at 1 h: 60 min p.i.; for tissue uptake dose at 1 h: PET VOI; for SUV: average of all patients
# Protocol: For each patient, a total of three PET/CT scans were performed using a Discovery PET/CT 690 VCT scanner (GE Healthcare, Milwaukee, WI, USA). The patients were allowed to urinate after the second scan and a sample of the urine was collected for metabolic analysis. For all patients, the region from upper thigh to the skull/cranium was covered by a seven-bed emission scan (2 min per bed position; field of view is 15.2 cm with overlapping acquisitions, resulting in a length of 12.3 cm for each bed position) performed in caudocranial direction. The mean starting times of the three scans were 8.3 ± 2.1, 36.9 ± 2.8, and 75.1 ± 3.4 min after tracer injection, respectively. Injected activity ranged from 154 to 184 MBq [^68Ga]NODAGA-RGD corresponding with approx. 10–12 μg peptide. X-ray CT transmission scans were performed twice, before the first and the third scan, to correct for gamma ray attenuation and to obtain the anatomical data required for drawing of the volume of interest (VOI). A second CT scan was required to guarantee the same positioning of VOIs (as for first and second scan) for image analysis because of patient movement.
# Positron emission data were reconstructed using an ordered-subsets expectation maximization algorithm. Reconstructions were performed with two iterations and 24 subsets. The images were corrected for attenuation using CT data collected over the same regions as for emission imaging. For image analysis, Hermes software (Version P5 gold 4.4-B; Hermes Medical Solutions AB, Stockholm, Sweden) was used. Images were calibrated to Bq/ml for radiation dosimetry estimates.
# as §3
# [8] = Metabolite analysis of blood samples by RP-HPLC; format: in vivo; conditions: human blood 30 and 60 min p.i., n = 3; acetonitrile extraction, RP-HPLC C18, 30-s fractions, gamma counter
# Protocol: as §1, §2
# [9] = design: method as in PMID 18483090; conditions: 60 min after injection; cited from earlier work
# [10] = i.v., OLINDA/EXM, individual residence times, mean of patients
# [11] = i.v., OLINDA/EXM, individual residence times, mean of patients, voiding after second scan
compound,measurement,setting,value
"OC[C@H]1OC(O)[C@H]([18F])[C@@H](O)[C@@H]1O (stereo partly drawn) [[^18F]FDG, 2-[F-18]fluoro-2-deoxy-D-glucose]",effective dose,[1],20-30 μSv/MBq
"N=C(N)NCCC[C@@H]1NC(=O)[C@H](CCCCNC(=O)CCC(C(=O)O)N2CCN(CC(=O)O)CCN(CC(=O)O)CC2)NC(=O)[C@@H](Cc2ccccc2)NC(=O)[C@H](CC(=O)O)NC(=O)CNC1=O (stereo partly drawn) [[^68Ga]NODAGA-RGD, metal not drawn]",metabolites in urine,[2],No metabolites could be detected; also recorded: No metabolites were detected
same,sum of the mean residence time,[3]; all organs,1.11 h
same,"residence time, Remainder of body, Mean",[3],42.2 (MBq × h/MBq) × 10^2
same,"residence time, Blood, Mean",[3]; monoexponential fit,0.011 h
same,"residence time, Kidneys, Mean",[3]; monoexponential fit,0.054 h
same,"residence time, Liver, Mean",[3]; monoexponential fit,0.113 h
same,"residence time, Lungs, Mean",[3]; monoexponential fit,0.011 h
same,"residence time, Muscle, Mean",[3]; monoexponential fit,0.246 h
same,"residence time, Small intestine, Mean",[3]; monoexponential fit,1.6 (MBq × h/MBq) × 10^2
same,"residence time, Spleen, Mean",[3]; monoexponential fit,1.8 (MBq × h/MBq) × 10^2
same,"effective dose, 30-min bladder voiding model","[4]; OLINDA/EXM, 30-min bladder voiding model",10.9 ± 1.9 μSv/MBq
same,"absorbed radiation dose, urinary bladder wall","[4]; highest absorbed dose, OLINDA/EXM",0.26 ± 0.09 mSv/MBq
same,effective dose if 200 MBq injected,[4]; hypothetical injection of 200 MBq,4.3 mSv
same,"Radiation dose estimate, Adrenals, Mean",[4]; [10],7.88 μSv/MBq
same,"Radiation dose estimate, Brain, Mean",[4]; [10],5.21 μSv/MBq
same,"Radiation dose estimate, Breast, Mean",[4]; [10],5.01 μSv/MBq
same,"Radiation dose estimate, Gallbladder wall, Mean",[4]; [10],8.67 μSv/MBq
same,"Radiation dose estimate, Heart wall, Mean",[4]; [10],6.33 μSv/MBq
same,"Radiation dose estimate, Kidneys, Mean",[4]; [10],69.00 μSv/MBq
same,"Radiation dose estimate, Liver, Mean",[4]; [10],32.00 μSv/MBq
same,"Radiation dose estimate, Lower large intestinal wall, Mean",[4]; [10],8.98 μSv/MBq
same,"Radiation dose estimate, Lungs, Mean",[4]; [10],7.17 μSv/MBq
same,"Radiation dose estimate, Muscle, Mean",[4]; [10],6.30 μSv/MBq
same,"Radiation dose estimate, Osteogenic cells, Mean",[4]; [10],8.10 μSv/MBq
same,"Radiation dose estimate, Pancreas, Mean",[4]; [10],7.99 μSv/MBq
same,"Radiation dose estimate, Red marrow, Mean",[4]; [10],5.47 μSv/MBq
same,"Radiation dose estimate, Skin, Mean",[4]; [10],5.03 μSv/MBq
same,"Radiation dose estimate, Small intestinal wall, Mean",[4]; [10],15.80 μSv/MBq
same,"Radiation dose estimate, Spleen, Mean",[4]; [10],48.20 μSv/MBq
same,"Radiation dose estimate, Stomach wall, Mean",[4]; [10],1.95 μSv/MBq
same,"Radiation dose estimate, Testes, Mean",[4]; [10],7.15 μSv/MBq
same,"Radiation dose estimate, Thymus, Mean",[4]; [10],5.57 μSv/MBq
same,"Radiation dose estimate, Thyroid, Mean",[4]; [10],5.39 μSv/MBq
same,"Radiation dose estimate, Total body, Mean",[4]; [10],7.29 μSv/MBq
same,"Radiation dose estimate, Upper large intestinal wall, Mean",[4]; [10],7.75 μSv/MBq
same,"Effective dose, Mean",[4]; [11],21.50 μSv/MBq
same,"Radiation dose estimate, Urinary bladder wall, Mean",[4]; [11],262.00 μSv/MBq
same,uptake in HCC compared with background liver tissue,[5],No increased uptake; also recorded: no increased radioactivity concentration
same,"changes in kidney, liver, or heart function during follow-up","[6]; clinical and biochemical investigations, nine patients",no significant changes
same,drug-/procedure-related adverse effects,"[6]; nine male patients with HCC and liver cirrhosis, i.v. 154-184 MBq",no drug-related adverse effects were observed; also recorded: no procedure-related adverse reactions were observed
same,tolerability,"[6]; nine male patients with HCC and liver cirrhosis, i.v. 154-184 MBq (approx. 10-12 μg peptide)",well tolerated in all patients
same,SUV at 1 h,"[7]; bladder, patients, read-out: median SUV, bladder",31 SUV
same,SUV at 1 h,"[7]; blood, patients, read-out: median SUV, blood",0.72 SUV
same,tissue uptake dose at 1 h,"[7]; blood, patients, read-out: %ID/l, blood",0.56 ± 0.43 %ID
same,SUV at 1 h,"[7]; intestine, patients, read-out: median SUV, intestine",0.88 SUV
same,tissue uptake dose at 1 h,"[7]; intestine, patients, read-out: %ID/l, intestine",0.54 ± 0.39 %ID
same,SUV at 1 h,"[7]; kidneys, patients, read-out: median SUV, kidneys",4.5 SUV
same,SUV at 1 h,"[7]; liver, patients, read-out: median SUV, liver",2.9 SUV
same,SUV,"[7]; liver, first scan (8 ± 2 min p.i.), read-out: mean SUV in the liver, first image",3.8 SUV
same,SUV,"[7]; liver, last scan (75 ± 4 min p.i.), read-out: mean SUV in the liver, last image",2.9 SUV
same,SUV at 1 h,"[7]; lung, patients, read-out: median SUV, lung",0.39 SUV
same,tissue uptake dose at 1 h,"[7]; lung, patients, read-out: %ID/l, lung",0.22 ± 0.05 %ID
same,SUV at 1 h,"[7]; muscle, patients, read-out: median SUV, muscle",0.26 SUV
same,tissue uptake dose at 1 h,"[7]; muscle, patients, read-out: %ID/l, muscle tissue",0.16 ± 0.8 %ID
same,SUV at 1 h,"[7]; spleen, patients, read-out: median SUV, spleen",3.8 SUV
same,elimination,"[7]; patients, PET",rapid and predominantly renal elimination
same,"radioactivity concentration in the bladder after voiding, % of the value before voiding","[7]; voiding between second and third scan (60 min p.i.), Fig. 3",approx. 20%
same,metabolites in blood,[8],No metabolites could be detected; also recorded: No metabolites were detected
[^18F]Fluciclatide,intact tracer in blood,[9],74%
